Assay results reported in patent US20240067693A1, “POLYPEPTIDES AND USES THEREOF” (MEDIMMUNE LIMITED, priority 2020, published 2024).
Numbered stars: 1 amine (or outer) side, 2 acyl side, 3 side chain; on linkers, the order of the positions; unused ones are H or OH. Bridge positions count the residues as written; N and C are the ends. Square brackets hold non-standard residues; d marks the D form. Side chains are listed from the residue outwards. Peptide text beside a SMILES is read from it. * marks the point of attachment. C18 diacid = O=C(O)CCCCCCCCCCCCCCCCC(=O)*; γGlu = O=C(O)[C@H](CCC(=O)[*:2])N[*:1]; Dab = NCC[C@H](N)C(=O)O; Aib = CC(C)(N)C(=O)O

Key:
[1] = target: T1, human amylin receptor (calcitonin receptor co-expressed with receptor activity modifying protein, RAMP3) (hAMYR3) (Homo sapiens, UniProt O60896+P30988); assay: cAMP production in 1321N1 cells with stable recombinant expression of human amylin receptor (hAMYR3); assay type: cell-based; conditions: for Ratio (selectivity hAMYR vs hCTR, ratio of EC50 values at the two receptors): EC50 hCTR / EC50 hAMYR3; for EC50: cAMP, 1321N1 cells, assay buffer with 0.1% BSA, read-out: EC50 (pM) hAMYR3
T1 construct: expressed in transfected cells
T1 sequence (P30988 25-474): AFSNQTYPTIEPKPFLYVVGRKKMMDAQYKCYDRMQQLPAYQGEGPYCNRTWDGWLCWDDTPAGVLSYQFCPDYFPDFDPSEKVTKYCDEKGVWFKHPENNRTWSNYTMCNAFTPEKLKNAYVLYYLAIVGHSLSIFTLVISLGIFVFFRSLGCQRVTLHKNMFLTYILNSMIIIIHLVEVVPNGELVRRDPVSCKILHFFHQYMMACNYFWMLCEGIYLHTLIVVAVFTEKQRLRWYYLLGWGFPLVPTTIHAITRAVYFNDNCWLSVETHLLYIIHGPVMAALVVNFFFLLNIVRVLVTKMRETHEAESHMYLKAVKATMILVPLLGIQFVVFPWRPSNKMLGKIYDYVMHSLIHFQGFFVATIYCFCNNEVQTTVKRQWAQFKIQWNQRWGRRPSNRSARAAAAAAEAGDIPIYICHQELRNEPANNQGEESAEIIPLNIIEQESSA
T1 sequence (O60896 24-148 partner): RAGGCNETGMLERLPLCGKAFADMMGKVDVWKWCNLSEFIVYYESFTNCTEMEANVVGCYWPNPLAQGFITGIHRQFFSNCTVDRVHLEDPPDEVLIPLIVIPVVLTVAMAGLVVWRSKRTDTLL
How it was run: (§1)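 Receptor-expressing cells (human receptors in 1321N1, rat receptors in HEK) incubated 30 min at room temperature with peptide in HBSS/HEPES pH 7.4, 0.1% BSA, 0.5 mM IBMX. cAMP read by HTRF; EC50 from 4-parameter fit as % of maximal amylin or calcitonin response.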

[2] = Thioflavin T fibrillation assay; assay type: physicochemical; conditions: ThT fibrillation assay; peptide 1 mg/mL in 25 mM sodium acetate buffer pH 4.0; 6 days at 37 °C with shaking; >144 h = no increase
Source text: Peptide aggregation that form fibrils is an indication of physical instability. Fibril formation in solution poses a significant risk for the stability of injectable peptide drug products. Thioflavin T (ThT) fibrillation assay is a useful tool to assess the aggregation kinetics of a peptide or protein under accelerated and stressed conditions that can be used to forecast the long-term viability of a compound in solution. ThT can selectively bind amyloid fibrils and the resultant complex emits strong fluorescence signal at 482 nm when excited at 450 nm (Anal Biochem. 1989 Mar;177(2):244-9). Monitoring of the change in fluorescence signal is an established method to study the fibril forming potential of peptides and proteins. ThT (purchased from Sigma Aldrich) stock solution is prepared by dissolving the ThT powder in Milli-Q water and filtered to obtain a 0.25 mM solution. The concentration of the solution is measured at 412 nm using an extinction coefficient of 36 mM^−1cm^−1. Test peptides were dissolved at 1 mg/mL in 25 mM sodium acetate buffer pH 4.0. 100 μL aliquot of peptide solution and 5 μL aliquot of ThT solution were placed in a clear bottom black fluorescence 96-well plate. 5 replicates of each test samples were placed in zo the same row of the plate. Buffer was placed in control wells for baseline correction. All empty wells were filled with water to prevent evaporation. The plate was sealed with aluminium seal and placed in fluorescence plate reader and incubated for 6 days at 37 ° C. with intermittent orbital shaking at 500 to 750 rpm. The fluorescence intensity was measured every 30 min using excitation at 444 nm and emission at 480 nm. The fibril forming potential of the test peptides was determined by measuring the average time taken to detect an increase in baseline corrected fluorescence intensity.

[3] = target: T2, human calcitonin receptor (hCTR) (Homo sapiens, UniProt P30988); assay: cAMP production in 1321N1 cells with stable recombinant expression of human calcitonin receptor (hCTR); assay type: cell-based; conditions: cAMP, 1321N1 cells, assay buffer with 0.1% BSA; read-out: EC50 (pM) hCTR
T2 construct: expressed in transfected cells
T2 sequence (P30988 25-474): T1 sequence (P30988 25-474)
How it was run: as §1

Ratio (selectivity hAMYR vs hCTR, ratio of EC50 values at the two receptors) [1]	EC50 [1] [pM]	Time taken to detect increase in fluorescence intensity [2] [h]	EC50 [3] [pM]	Compound
12	161	<5	1880	CC[C@H](C)[C@H](NC(=O)[C@@H]1CCCN1C(=O)CNC(=O)[C@H](Cc1ccccc1)NC(=O)[C@H](CC(N)=O)NC(=O)[C@H](CC(N)=O)NC(=O)[C@H](CO)NC(=O)[C@H](CO)NC(=O)[C@H](Cc1c[nH]cn1)NC(=O)[C@@H](NC(=O)[C@H](CC(C)C)NC(=O)[C@H](Cc1ccccc1)NC(=O)[C@H](CC(N)=O)NC(=O)[C@H](C)NC(=O)[C@H](CC(C)C)NC(=O)[C@H](CCCNC(=N)N)NC(=O)[C@H](CCC(N)=O)NC(=O)[C@@H](NC(=O)[C@H](C)NC(=O)[C@@H]1CSSC[C@H](NC(=O)[C@@H](N)CCCCNC(=O)CC[C@H](NC(=O)CCCCCCCCCCCCCCCCC(=O)O)C(=O)O)C(=O)N[C@@H](CC(N)=O)C(=O)N[C@@H]([C@@H](C)O)C(=O)N[C@@H](C)C(=O)N[C@@H]([C@@H](C)O)C(=O)N1)[C@@H](C)O)C(C)C)C(=O)N[C@H](CC(C)C)C(=O)N1CCC[C@H]1C(=O)N1CCC[C@H]1C(=O)N[C@H](C(=O)N[C@@H](CC(N)=O)C(=O)N[C@H](C(=O)NCC(=O)N[C@@H](CO)C(=O)N[C@@H](CC(N)=O)C(=O)N[C@H](C(=O)N[C@@H](Cc1ccc(O)cc1)C(N)=O)[C@@H](C)O)C(C)C)[C@@H](C)O [Peptide 103, K(γE-C18diacid)[CNTATC]ATQRLANFLVHSSNNFGPI(dL)PPTNVGSNTY-amide] (H-K([γGlu-C18 diacid])CNTATCATQRLANFLVHSSNNFGPI[dL]PPTNVGSNTY-NH2; disulfide 2-7; N-terminus assumed)
22.3	3750	>144	83800	CC[C@H](C)[C@H](NC(=O)[C@@H]1CCCN1C(=O)CNC(=O)[C@H](Cc1ccccc1)NC(=O)[C@H](CC(N)=O)NC(=O)[C@H](CC(N)=O)NC(=O)[C@H](CO)NC(=O)[C@H](CO)NC(=O)[C@H](Cc1c[nH]cn1)NC(=O)C(C)(C)NC(=O)[C@H](CC(C)C)NC(=O)[C@H](Cc1ccccc1)NC(=O)[C@H](CCN)NC(=O)[C@H](C)NC(=O)[C@H](CC(C)C)NC(=O)[C@H](CCCNC(=N)N)NC(=O)[C@H](CCC(N)=O)NC(=O)[C@@H](NC(=O)[C@H](C)NC(=O)[C@@H]1CSSC[C@H](NC(=O)[C@H](CCCCN)NC(=O)[C@@H](N)CCCCNC(=O)CC[C@H](NC(=O)CCCCCCCCCCCCCCCCC(=O)O)C(=O)O)C(=O)N[C@@H](CC(N)=O)C(=O)N[C@@H]([C@@H](C)O)C(=O)N[C@@H](C)C(=O)N[C@@H]([C@@H](C)O)C(=O)N1)[C@@H](C)O)C(=O)N[C@@H](CC(C)C)C(=O)N1CCC[C@H]1C(=O)N1CCC[C@H]1C(=O)N[C@H](C(=O)N[C@@H](CCC(=O)O)C(=O)N[C@H](C(=O)NCC(=O)N[C@@H](CO)C(=O)N[C@@H](CC(N)=O)C(=O)N[C@H](C(=O)N[C@@H](Cc1ccc(O)cc1)C(N)=O)[C@@H](C)O)C(C)C)[C@@H](C)O [Peptide 156] (H-K([γGlu-C18 diacid])KCNTATCATQRLA[Dab]FL[Aib]HSSNNFGPILPPTEVGSNTY-NH2; disulfide 3-8)
3	479	–	1630	CC[C@H](C)[C@H](NC(=O)[C@@H]1CCCN1C(=O)CNC(=O)[C@H](Cc1ccccc1)NC(=O)[C@H](CC(N)=O)NC(=O)[C@H](CC(N)=O)NC(=O)[C@H](CO)NC(=O)[C@H](CO)NC(=O)[C@H](Cc1c[nH]cn1)NC(=O)C(C)(C)NC(=O)[C@H](CC(C)C)NC(=O)[C@H](Cc1ccccc1)NC(=O)[C@H](CC(N)=O)NC(=O)[C@H](C)NC(=O)[C@H](CC(C)C)NC(=O)[C@H](CCCNC(=N)N)NC(=O)[C@H](CCC(N)=O)NC(=O)[C@@H](NC(=O)[C@H](C)NC(=O)[C@@H]1CSSC[C@H](NC(=O)[C@H](CCCCN)NC(=O)[C@@H](N)CCCCNC(=O)CC[C@H](NC(=O)CCCCCCCCCCCCCCCCC(=O)O)C(=O)O)C(=O)N[C@@H](CC(N)=O)C(=O)N[C@@H]([C@@H](C)O)C(=O)N[C@@H](C)C(=O)N[C@@H]([C@@H](C)O)C(=O)N1)[C@@H](C)O)C(=O)N[C@@H](CC(C)C)C(=O)N1CCC[C@H]1C(=O)N1CCC[C@H]1C(=O)N[C@H](C(=O)N[C@@H](CC(N)=O)C(=O)N[C@H](C(=O)NCC(=O)N[C@@H](CO)C(=O)NC(C)(C)C(=O)N[C@H](C(=O)N[C@@H](Cc1ccc(O)cc1)C(N)=O)[C@@H](C)O)C(C)C)[C@@H](C)O [Peptide 102, K(γE-C18diacid)K[CNTATC]ATQRLANFL(Aib)HSSNNFGPILPPTNVGS(Aib)TY-amide] (H-K([γGlu-C18 diacid])KCNTATCATQRLANFL[Aib]HSSNNFGPILPPTNVGS[Aib]TY-NH2; disulfide 3-8)
8	249	–	1960	CC[C@H](C)[C@H](NC(=O)[C@@H]1CCCN1C(=O)CNC(=O)[C@H](Cc1ccccc1)NC(=O)[C@H](CC(N)=O)NC(=O)C(C)(C)NC(=O)[C@H](CO)NC(=O)[C@H](CO)NC(=O)[C@H](Cc1c[nH]cn1)NC(=O)[C@H](CO)NC(=O)[C@H](CC(C)C)NC(=O)[C@H](Cc1ccccc1)NC(=O)[C@H](CC(N)=O)NC(=O)[C@H](C)NC(=O)[C@H](CC(C)C)NC(=O)[C@H](CCCNC(=N)N)NC(=O)[C@H](CCC(N)=O)NC(=O)[C@@H](NC(=O)[C@H](C)NC(=O)[C@@H]1CSSC[C@H](NC(=O)[C@H](CCCCN)NC(=O)[C@@H](N)CCCCNC(=O)CC[C@H](NC(=O)CCCCCCCCCCCCCCCCC(=O)O)C(=O)O)C(=O)N[C@@H](CC(N)=O)C(=O)N[C@@H]([C@@H](C)O)C(=O)N[C@@H](C)C(=O)N[C@@H]([C@@H](C)O)C(=O)N1)[C@@H](C)O)C(=O)N[C@@H](CC(C)C)C(=O)N1CCC[C@H]1C(=O)N1CCC[C@H]1C(=O)N[C@H](C(=O)N[C@@H](CC(N)=O)C(=O)N[C@H](C(=O)NCC(=O)N[C@@H](CO)C(=O)N[C@@H](CC(N)=O)C(=O)N[C@H](C(=O)N[C@@H](Cc1ccc(O)cc1)C(N)=O)[C@@H](C)O)C(C)C)[C@@H](C)O [Peptide 37, K(γE-C18diacid)K[CNTATC]ATQRLANFLSHSS(Aib)NFGPILPPTNVGSNTY-amide] (H-K([γGlu-C18 diacid])KCNTATCATQRLANFLSHSS[Aib]NFGPILPPTNVGSNTY-NH2; disulfide 3-8)
4.1	612	–	2510	CC[C@H](C)[C@H](NC(=O)[C@@H]1CCCN1C(=O)CNC(=O)[C@H](Cc1ccccc1)NC(=O)[C@H](CC(N)=O)NC(=O)[C@@H]1CCCN1C(=O)[C@H](CO)NC(=O)[C@H](CO)NC(=O)[C@H](Cc1c[nH]cn1)NC(=O)C(C)(C)NC(=O)[C@H](CC(C)C)NC(=O)[C@H](Cc1ccccc1)NC(=O)[C@H](CC(N)=O)NC(=O)[C@H](C)NC(=O)[C@H](CC(C)C)NC(=O)[C@H](CCCNC(=N)N)NC(=O)[C@H](CCC(N)=O)NC(=O)[C@@H](NC(=O)[C@H](C)NC(=O)[C@@H]1CSSC[C@H](NC(=O)[C@H](CCCCN)NC(=O)[C@@H](N)CCCCNC(=O)CC[C@H](NC(=O)CCCCCCCCCCCCCCCCC(=O)O)C(=O)O)C(=O)N[C@@H](CC(N)=O)C(=O)N[C@@H]([C@@H](C)O)C(=O)N[C@@H](C)C(=O)N[C@@H]([C@@H](C)O)C(=O)N1)[C@@H](C)O)C(=O)N[C@@H](CC(C)C)C(=O)N1CCC[C@H]1C(=O)N1CCC[C@H]1C(=O)N[C@H](C(=O)N[C@@H](CCC(=O)O)C(=O)N[C@H](C(=O)NCC(=O)N[C@@H](CO)C(=O)N[C@@H](CC(N)=O)C(=O)N[C@H](C(=O)N[C@@H](Cc1ccc(O)cc1)C(N)=O)[C@@H](C)O)C(C)C)[C@@H](C)O [Peptide 138] (H-K([γGlu-C18 diacid])KCNTATCATQRLANFL[Aib]HSSPNFGPILPPTEVGSNTY-NH2; disulfide 3-8)
